Starred links: 1 amine or outer side, 2 acyl side, 3 side chain; linkers in the order of their positions; H or OH if unused. Non-standard residues stand in square brackets, D forms with d. Residues, ends and D or L forms follow the SMILES beside them. *: point of attachment. Pipz(1-CH2CO,4-CH2CH2NH) = O=C(CN1CCN(CCN[*:1])CC1)[*:2]; C18 diacid = O=C(O)CCCCCCCCCCCCCCCCC(=O)*; γGlu = O=C(O)[C@H](CCC(=O)[*:2])N[*:1]; 3Pal = N[C@@H](Cc1cccnc1)C(=O)O; NMeL = CN[C@@H](CC(C)C)C(=O)O; Nle = CCCC[C@H](N)C(=O)O; Sar = CNCC(=O)O
How the values were obtained:
Type in all cases: cell-based
human NMUR1 receptor = target: T1, human NMUR1 receptor (Homo sapiens, UniProt Q9HB89); experiment: IP1 Gq HTRF assay, activation of human NMUR1 in buffer; settings: CHO-K1 cells expressing human NMUR1, stimulation buffer with 0.1% BSA; read-out: EC50 (hNMUR1) buffer
T1 construct: expressed in transfected cells; host or cells: CHO-K1
T1 sequence (Q9HB89 1-426): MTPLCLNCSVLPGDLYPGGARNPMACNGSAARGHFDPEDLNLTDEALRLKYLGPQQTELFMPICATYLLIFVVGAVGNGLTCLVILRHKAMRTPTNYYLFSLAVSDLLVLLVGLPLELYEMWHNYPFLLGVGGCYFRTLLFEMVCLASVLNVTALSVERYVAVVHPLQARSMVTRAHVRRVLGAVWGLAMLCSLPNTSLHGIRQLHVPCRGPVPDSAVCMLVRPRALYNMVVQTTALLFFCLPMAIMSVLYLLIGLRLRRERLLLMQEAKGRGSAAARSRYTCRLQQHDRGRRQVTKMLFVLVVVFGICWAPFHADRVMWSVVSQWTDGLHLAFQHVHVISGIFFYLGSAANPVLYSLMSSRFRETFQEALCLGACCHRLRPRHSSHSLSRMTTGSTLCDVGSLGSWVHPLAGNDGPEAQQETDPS
Summary of the method: (§1)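 CHO-K1 cells stably expressing human NMUR1 or NMUR2, seeded 24 h before assay, stimulated with peptide agonists (8-point dose-response, 1% DMSO final) in HEPES/HBSS buffer with 50 mM LiCl and 0.1% BSA, pH 7.4, 1 h at 37 °C. IP1 accumulation read by HTRF competition (665/620 nm); EC50 from 4-parameter sigmoidal fit.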

human NMUR2 receptor [1] = target: T2, human NMUR2 receptor (Homo sapiens, UniProt Q9GZQ4); experiment: IP1 Gq HTRF assay, activation of human NMUR2 in buffer; set-up: expressed in transfected cells; host or cells: CHO-K1; settings: CHO-K1 cells expressing human NMUR2, stimulation buffer with 0.1% BSA; read-out: EC50 (hNMUR2) buffer
Summary of the method: as §1

human NMUR2 receptor [2] = target: T2, human NMUR2 receptor; experiment: IP1 Gq HTRF assay, activation of human NMUR2 in human plasma; set-up: expressed in transfected cells; host or cells: CHO-K1; settings: CHO-K1 cells expressing human NMUR2, 100% human plasma; read-out: EC50 (hNMUR2) human plasma
Summary of the method: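 CHO-K1 cells stably expressing human NMUR2 exposed to peptide agonists (8-point dose-response) in 100% human plasma with 50 mM LiCl, 1% DMSO, for 1 h at 37° C. IP1 accumulation read by HTRF competition (665/620 nm ratio). EC50 from 4-parameter sigmoidal fit.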

T2 sequence (Q9GZQ4 whole entry): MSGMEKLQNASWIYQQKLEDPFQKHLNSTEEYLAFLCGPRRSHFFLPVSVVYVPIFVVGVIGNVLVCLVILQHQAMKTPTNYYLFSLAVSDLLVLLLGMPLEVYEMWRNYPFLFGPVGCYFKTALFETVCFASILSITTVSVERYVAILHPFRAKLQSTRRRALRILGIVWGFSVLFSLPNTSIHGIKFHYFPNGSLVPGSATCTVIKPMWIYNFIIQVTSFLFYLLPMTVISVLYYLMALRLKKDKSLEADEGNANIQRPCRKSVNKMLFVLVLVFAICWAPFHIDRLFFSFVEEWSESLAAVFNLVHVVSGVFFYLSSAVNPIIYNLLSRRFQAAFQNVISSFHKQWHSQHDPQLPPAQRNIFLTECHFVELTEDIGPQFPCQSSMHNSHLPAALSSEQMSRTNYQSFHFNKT

Q: For `CCCC[C@H](NC(=O)[C@H](CC(C)C)N(C)C(=O)[C@H](Cc1ccccc1)NC(=O)[C@H](Cc1ccc(O)cc1)NC(=O)CN1CCN(CCNC(=O)CN(C)C(=O)CN(C)C(=O)CN(C)C(=O)CN(C)C(=O)CN(C)C(=O)CN(C)C(=O)CN(C)C(=O)CN(C)C(=O)CN(C)C(=O)CN(C)C(=O)CN(C)C(=O)CN(C)C(=O)CN(C)C(=O)CN(C)C(=O)CN(C)C(=O)CC[C@H](NC(=O)CC[C@H](NC(=O)CC[C@H](NC(=O)CCCCCCCCCCCCCCCCCCC(=O)O)C(=O)O)C(=O)O)C(=O)O)CC1)C(=O)N[C@@H](CCCCN)C(=O)N(C)[C@@H](C)C(=O)N[C@@H](CCCNC(=N)N)C(=O)NCC(N)=O` [Compound 50, C20DA-gGlu3-Sar15-AEPipAc-Tyr-Phe-NMeLeu-Nle-Lys-NMeAla-Arg-Gly-NH2] (HELM PEPTIDE1{[O=C(O)CCCCCCCCCCCCCCCCCCC(=O)[*:2]].[gGlu].[gGlu].[gGlu].[Sar].[Sar].[Sar].[Sar].[Sar].[Sar].[Sar].[Sar].[Sar].[Sar].[Sar].[Sar].[Sar].[Sar].[Sar].[O=C(CN1CCN(CCN[*:1])CC1)[*:2]].Y.F.[meL].[Nle].K.[meA].R.G.[am]}$$$$V2.0), which EC50 (human NMUR1 receptor) is on record?
A: > 1000 nM

Q: And the EC50 (human NMUR2 receptor [1])?
A: 23 nM

Q: What about the EC50 (human NMUR2 receptor [2]) of the same compound?
A: 69.9 nM

Q: Which EC50 (human NMUR1 receptor) does the source give for `CCCC[C@H](NC(=O)[C@H](CC(C)C)N(C)C(=O)[C@H](Cc1ccccc1)NC(=O)[C@H](Cc1ccc(O)cc1)NC(=O)CN1CCN(CCNC(=O)CN(C)C(=O)CN(C)C(=O)CN(C)C(=O)CN(C)C(=O)CN(C)C(=O)CN(C)C(=O)CN(C)C(=O)CN(C)C(=O)CN(C)C(=O)CN(C)C(=O)CN(C)C(=O)CN(C)C(=O)CN(C)C(=O)CN(C)C(=O)CN(C)C(=O)CC[C@H](NC(=O)CC[C@H](NC(=O)CC[C@H](NC(=O)CCCCCCCCCCCCCCCCC(=O)O)C(=O)O)C(=O)O)C(=O)O)CC1)C(=O)N[C@@H](Cc1c[nH]cn1)C(=O)N1CCC[C@H]1C(=O)N[C@@H](CCCNC(=N)N)C(=O)NCC(N)=O` [Compound 51, C18DA-gGlu3-Sar15-AEPipAc-Tyr-Phe-NMeLeu-Nle-His-Pro-Arg-Gly-NH2] (HELM PEPTIDE1{[O=C(O)CCCCCCCCCCCCCCCCC(=O)[*:2]].[gGlu].[gGlu].[gGlu].[Sar].[Sar].[Sar].[Sar].[Sar].[Sar].[Sar].[Sar].[Sar].[Sar].[Sar].[Sar].[Sar].[Sar].[Sar].[O=C(CN1CCN(CCN[*:1])CC1)[*:2]].Y.F.[meL].[Nle].H.P.R.G.[am]}$$$$V2.0) here?
A: > 1000 nM

Q: What about the EC50 (human NMUR2 receptor [1]) of the same compound?
A: 19 nM

Q: What about the EC50 (human NMUR2 receptor [2]) of the same compound?
A: 112 nM

Q: Which results are given for `CCCC[C@H](NC(=O)[C@H](CC(C)C)N(C)C(=O)[C@H](Cc1ccccc1)NC(=O)[C@H](Cc1ccc(O)cc1)NC(=O)CN1CCN(CCNC(=O)CN(C)C(=O)CN(C)C(=O)CN(C)C(=O)CN(C)C(=O)CN(C)C(=O)CN(C)C(=O)CN(C)C(=O)CN(C)C(=O)CN(C)C(=O)CN(C)C(=O)CN(C)C(=O)CN(C)C(=O)CN(C)C(=O)CN(C)C(=O)CN(C)C(=O)CC[C@H](NC(=O)CC[C@H](NC(=O)CC[C@H](NC(=O)CCCCCCCCCCCCCCCCC(=O)O)C(=O)O)C(=O)O)C(=O)O)CC1)C(=O)N(C)[C@@H](CCCNC(=N)N)C(=O)N1CCC[C@H]1C(=O)N[C@@H](CCCNC(=N)N)C(=O)NCC(N)=O` [Compound 52, C18DA-gGlu3-Sar15-AEPipAc-Tyr-Phe-NMeLeu-Nle-NMeArg-Pro-Arg-Gly-NH2] (HELM PEPTIDE1{[O=C(O)CCCCCCCCCCCCCCCCC(=O)[*:2]].[gGlu].[gGlu].[gGlu].[Sar].[Sar].[Sar].[Sar].[Sar].[Sar].[Sar].[Sar].[Sar].[Sar].[Sar].[Sar].[Sar].[Sar].[Sar].[O=C(CN1CCN(CCN[*:1])CC1)[*:2]].Y.F.[meL].[Nle].[meR].P.R.G.[am]}$$$$V2.0)?
A: EC50 (human NMUR1 receptor): 200 nM; EC50 (human NMUR2 receptor [1]): 1.4 nM; EC50 (human NMUR2 receptor [2]): 6.4 nM

Q: With `CCCC[C@H](NC(=O)[C@H](CC(C)C)N(C)C(=O)[C@H](Cc1ccccc1)NC(=O)[C@H](Cc1ccc(O)cc1)NC(=O)CN1CCN(CCNC(=O)CN(C)C(=O)CN(C)C(=O)CN(C)C(=O)CN(C)C(=O)CN(C)C(=O)CN(C)C(=O)CN(C)C(=O)CN(C)C(=O)CN(C)C(=O)CN(C)C(=O)CN(C)C(=O)CN(C)C(=O)CN(C)C(=O)CN(C)C(=O)CN(C)C(=O)CC[C@H](NC(=O)CC[C@H](NC(=O)CC[C@H](NC(=O)CCCCCCCCCCCCCCCCC(=O)O)C(=O)O)C(=O)O)C(=O)O)CC1)C(=O)N(C)[C@@H](CCCNC(=N)N)C(=O)N(C)[C@@H](C)C(=O)N[C@@H](CCCNC(=N)N)C(=O)NCC(N)=O` [Compound 53, C18DA-gGlu3-Sar15-AEPipAc-Tyr-Phe-NMeLeu-Nle-NMeArg-NMeAla-Arg-Gly-NH2] (HELM PEPTIDE1{[O=C(O)CCCCCCCCCCCCCCCCC(=O)[*:2]].[gGlu].[gGlu].[gGlu].[Sar].[Sar].[Sar].[Sar].[Sar].[Sar].[Sar].[Sar].[Sar].[Sar].[Sar].[Sar].[Sar].[Sar].[Sar].[O=C(CN1CCN(CCN[*:1])CC1)[*:2]].Y.F.[meL].[Nle].[meR].[meA].R.G.[am]}$$$$V2.0) as the compound, how does the EC50 (human NMUR1 receptor) read?
A: 1300 nM

Q: What about the EC50 (human NMUR2 receptor [1]) of the same compound?
A: 4 nM

Q: What about the EC50 (human NMUR2 receptor [2]) of the same compound?
A: 24.9 nM

Q: With `CCCC[C@H](NC(=O)[C@H](CC(C)C)N(C)C(=O)[C@H](Cc1ccccc1)NC(=O)[C@H](Cc1ccc(O)cc1)NC(=O)CN1CCN(CCNC(=O)CN(C)C(=O)CN(C)C(=O)CN(C)C(=O)CN(C)C(=O)CN(C)C(=O)CN(C)C(=O)CN(C)C(=O)CN(C)C(=O)CN(C)C(=O)CN(C)C(=O)CN(C)C(=O)CN(C)C(=O)CN(C)C(=O)CN(C)C(=O)CN(C)C(=O)CC[C@H](NC(=O)CC[C@H](NC(=O)CC[C@H](NC(=O)CCCCCCCCCCCCCCCCC(=O)O)C(=O)O)C(=O)O)C(=O)O)CC1)C(=O)N[C@@H](Cc1cccnc1)C(=O)N1CCC[C@H]1C(=O)N[C@@H](CCCNC(=N)N)C(=O)NCC(N)=O` [Compound 54, C18DA-gGlu3-Sar15-AEPipAc-Tyr-Phe-NMeLeu-Nle-3Pal-Pro-Arg-Gly-NH2] ({C18 diacid-γGlu-γGlu-γGlu}-[Sar][Sar][Sar][Sar][Sar][Sar][Sar][Sar][Sar][Sar][Sar][Sar][Sar][Sar][Sar][Pipz(1-CH2CO,4-CH2CH2NH)]YF[NMeL][Nle][3Pal]PRG-NH2) as the compound, how does the EC50 (human NMUR1 receptor) read?
A: > 1000 nM

Q: And the EC50 (human NMUR2 receptor [1])?
A: 28 nM

Q: And the EC50 (human NMUR2 receptor [2])?
A: 122 nM

Q: Which EC50 (human NMUR1 receptor) does the source give for `CCCC[C@H](NC(=O)[C@H](CC(C)C)N(C)C(=O)[C@H](Cc1ccccc1)NC(=O)[C@H](Cc1ccc(O)cc1)NC(=O)CN1CCN(CCNC(=O)CN(C)C(=O)CN(C)C(=O)CN(C)C(=O)CN(C)C(=O)CN(C)C(=O)CN(C)C(=O)CN(C)C(=O)CN(C)C(=O)CN(C)C(=O)CN(C)C(=O)CN(C)C(=O)CN(C)C(=O)CN(C)C(=O)CN(C)C(=O)CN(C)C(=O)CC[C@H](NC(=O)CC[C@H](NC(=O)CC[C@H](NC(=O)CCCCCCCCCCCCCCCCC(=O)O)C(=O)O)C(=O)O)C(=O)O)CC1)C(=O)N[C@@H](Cc1c[nH]cn1)C(=O)N(C)[C@@H](C)C(=O)N[C@@H](CCCNC(=N)N)C(=O)NCC(N)=O` [Compound 55, C18DA-gGlu3-Sar15-AEPipAc-Tyr-Phe-NMeLeu-Nle-His-NMeAla-Arg-Gly-NH2] (HELM PEPTIDE1{[O=C(O)CCCCCCCCCCCCCCCCC(=O)[*:2]].[gGlu].[gGlu].[gGlu].[Sar].[Sar].[Sar].[Sar].[Sar].[Sar].[Sar].[Sar].[Sar].[Sar].[Sar].[Sar].[Sar].[Sar].[Sar].[O=C(CN1CCN(CCN[*:1])CC1)[*:2]].Y.F.[meL].[Nle].H.[meA].R.G.[am]}$$$$V2.0) here?
A: > 1000 nM

Q: And the EC50 (human NMUR2 receptor [1])?
A: 29 nM

Q: And the EC50 (human NMUR2 receptor [2])?
A: 294 nM

Source: patent publication US20240279278A1, “NMU RECEPTOR 2 AGONISTS” (Boehringer Ingelheim International GmbH, priority 2023, published 2024)
